Results from ChEMBL document CHEMBL1201862, “PubChem BioAssay data set” (2004).
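Grown in 96-well plates, cells were treated for 48 hours with each compound at five concentrations. Insufficient inhibition: endpoint recorded as highest concentration tested. GI50 = concentration required for 50% inhibition of growth.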 Active and inactive are the calls of the source. Rule as the data show it: active = GI50 up to about 1.1 µM and inactive = higher.

What was measured:
Assay in all cases: NCI-60 cell line screen, 48 h
NCI-H522 = test system: NCI-H522
IGROV-1 = test system: IGROV-1
SF-268 = test system: SF-268
M19-MEL = test system: M19-MEL
SK-MEL-2 = test system: SK-MEL-2
RXF 393 = test system: RXF 393
KM-20L2 = test system: KM-20L2
M14 = test system: M14
HL-60 = test system: HL-60
MOLT-4 = test system: MOLT-4
DMS-114 = test system: DMS-114
786-0 = test system: 786-0
K562 = test system: K562
RPMI-8226 = test system: RPMI-8226
UACC-257 = test system: UACC-257
HOP-92 = test system: HOP-92
SF-295 = test system: SF-295
COLO 205 = test system: COLO 205
SNB-19 = test system: SNB-19
NCI-H460 = test system: NCI-H460
LXFL 529 = test system: LXFL 529
UO-31 = test system: UO-31
UACC-62 = test system: UACC-62
HT-29 = test system: HT-29
OVCAR-5 = test system: OVCAR-5
HOP-62 = test system: HOP-62
ACHN = test system: ACHN
SNB-78 = test system: SNB-78
SK-MEL-28 = test system: SK-MEL-28
KM12 = test system: KM12
A498 = test system: A498
SR = test system: SR
SNB-75 = test system: SNB-75
OVCAR-3 = test system: OVCAR-3
SK-OV-3 = test system: SK-OV-3
NCI-H23 = test system: NCI-H23
U-251 = test system: U-251
OVCAR-4 = test system: OVCAR-4
OVCAR-8 = test system: OVCAR-8
A549 = test system: A549
EKVX = test system: EKVX
TK-10 = test system: TK-10
CCRF-CEM = test system: CCRF-CEM
DMS-273 = test system: DMS-273
SF-539 = test system: SF-539
CAKI-1 = test system: CAKI-1
NCI/ADR-RES = test system: NCI/ADR-RES
PC-3 = test system: PC-3
T47D = test system: T47D
MDA-MB-435 = test system: MDA-MB-435
SN12C = test system: SN12C
SK-MEL-5 = test system: SK-MEL-5
DU-145 = test system: DU-145
Hs-578T = test system: Hs-578T
HCT-116 = test system: HCT-116
LOX IMVI = test system: LOX IMVI
MCF7 = test system: MCF7
HCT-15 = test system: HCT-15
NCI-H226 = test system: NCI-H226
BT-549 = test system: BT-549
MDA-N = test system: MDA-N
HCC 2998 = test system: HCC 2998
SW-620 = test system: SW-620
Malme-3M = test system: Malme-3M
MDA-MB-231 = test system: MDA-MB-231
DLD-1 = test system: DLD-1
HOP-18 = test system: HOP-18

Compound: [N-]=[N+]=NC1(c2ccccc2)C(=O)c2cccc3c2N(CCC3)C1=O (stereo not given)
- GI50 (NCI-H522): 27 µM (inactive)
- GI50 (IGROV-1): 84.9 µM (inactive)
- GI50 (SF-268): 94.2 µM (inactive)
- GI50 (M19-MEL): 60.7 µM (inactive)
- GI50 (SK-MEL-2): > 100 µM (inactive)
- GI50 (RXF 393): > 100 µM (inactive)
- GI50 (KM-20L2): > 100 µM (inactive)
- GI50 (M14): 36.9 µM (inactive)
- GI50 (HL-60): 21.4 µM (inactive)
- GI50 (MOLT-4): 31.8 µM (inactive)
- GI50 (DMS-114): 44.5 µM (inactive)
- GI50 (786-0): > 100 µM (inactive)
- GI50 (K562): 27.7 µM (inactive)
- GI50 (RPMI-8226): 27.7 µM (inactive)
- GI50 (UACC-257): 32.3 µM (inactive)
- GI50 (HOP-92): 33.6 µM (inactive)
- GI50 (SF-295): 34.5 µM (inactive)
- GI50 (COLO 205): 88.3 µM (inactive)
- GI50 (SNB-19): 97.5 µM (inactive)
- GI50 (NCI-H460): 92.3 µM (inactive)
- GI50 (LXFL 529): 56.9 µM (inactive)
- GI50 (UO-31): 18.1 µM (inactive)
- GI50 (UACC-62): 92.7 µM (inactive)
- GI50 (HT-29): 47.4 µM (inactive)
- GI50 (OVCAR-5): > 100 µM (inactive)
- GI50 (HOP-62): > 100 µM (inactive)
- GI50 (ACHN): 54.1 µM (inactive)
- GI50 (SNB-78): 45.1 µM (inactive)
- GI50 (SK-MEL-28): > 100 µM (inactive)
- GI50 (KM12): 43.4 µM (inactive)
- GI50 (A498): 54.6 µM (inactive)
- GI50 (SR): 36 µM (inactive)
- GI50 (SNB-75): 31.8 µM (inactive)
- GI50 (OVCAR-3): 29.9 µM (inactive)
- GI50 (SK-OV-3): 92.9 µM (inactive)
- GI50 (NCI-H23): 49.7 µM (inactive)
- GI50 (U-251): 72.3 µM (inactive)
- GI50 (OVCAR-4): 55.8 µM (inactive)

Compound: COC1=C(OC)C(O)(c2ccccc2)C1=O (stereo not given)
- GI50 (NCI-H522): > 100 µM (inactive)
- GI50 (IGROV-1): > 100 µM (inactive)
- GI50 (SF-268): > 100 µM (inactive)
- GI50 (M19-MEL): > 100 µM (inactive)
- GI50 (RXF 393): > 100 µM (inactive)
- GI50 (M14): > 100 µM (inactive)
- GI50 (HL-60): > 100 µM (inactive)
- GI50 (MOLT-4): > 100 µM (inactive)
- GI50 (OVCAR-8): > 100 µM (inactive)
- GI50 (UACC-257): > 100 µM (inactive)
- GI50 (A549): > 100 µM (inactive)
- GI50 (HOP-92): > 100 µM (inactive)
- GI50 (SF-295): > 100 µM (inactive)
- GI50 (SNB-19): > 100 µM (inactive)
- GI50 (NCI-H460): > 100 µM (inactive)
- GI50 (EKVX): > 100 µM (inactive)
- GI50 (UO-31): > 100 µM (inactive)
- GI50 (TK-10): 22.2 µM (inactive)
- GI50 (CCRF-CEM): > 100 µM (inactive)
- GI50 (DMS-273): > 100 µM (inactive)
- GI50 (HT-29): > 100 µM (inactive)
- GI50 (OVCAR-5): > 100 µM (inactive)
- GI50 (HOP-62): > 100 µM (inactive)
- GI50 (ACHN): > 100 µM (inactive)
- GI50 (SNB-78): > 100 µM (inactive)
- GI50 (SK-MEL-28): > 100 µM (inactive)
- GI50 (KM12): > 100 µM (inactive)
- GI50 (A498): > 100 µM (inactive)
- GI50 (SR): > 100 µM (inactive)
- GI50 (SK-OV-3): > 100 µM (inactive)
- GI50 (NCI-H23): > 100 µM (inactive)
- GI50 (U-251): > 100 µM (inactive)

Compound: c1ccc(-c2nnc(-c3ccccn3)c3c2C[C@@H]2C[C@@H]4Cc5c(-c6ccccn6)nnc(-c6ccccn6)c5[C@@H]4[C@H]32)nc1
- GI50 (NCI-H522): 96.6 µM (inactive)
- GI50 (IGROV-1): 58.5 µM (inactive)
- GI50 (SF-268): 35 µM (inactive)
- GI50 (SK-MEL-2): 51.1 µM (inactive)
- GI50 (RXF 393): > 100 µM (inactive)
- GI50 (SF-539): 85.7 µM (inactive)
- GI50 (CAKI-1): 58.7 µM (inactive)
- GI50 (NCI/ADR-RES): 32.7 µM (inactive)
- GI50 (M14): 20 µM (inactive)
- GI50 (HL-60): 24.7 µM (inactive)
- GI50 (PC-3): 41.5 µM (inactive)
- GI50 (MOLT-4): 33.2 µM (inactive)
- GI50 (T47D): 38.6 µM (inactive)
- GI50 (786-0): 33.7 µM (inactive)
- GI50 (K562): 18.3 µM (inactive)
- GI50 (OVCAR-8): 36.8 µM (inactive)
- GI50 (RPMI-8226): 44.7 µM (inactive)
- GI50 (UACC-257): 66.7 µM (inactive)
- GI50 (A549): 29 µM (inactive)
- GI50 (HOP-92): 60.4 µM (inactive)
- GI50 (SF-295): 58.9 µM (inactive)
- GI50 (MDA-MB-435): 50.6 µM (inactive)
- GI50 (COLO 205): 35.1 µM (inactive)
- GI50 (SNB-19): 80.7 µM (inactive)
- GI50 (SN12C): 48.8 µM (inactive)
- GI50 (SK-MEL-5): 27.8 µM (inactive)
- GI50 (DU-145): 38.8 µM (inactive)
- GI50 (Hs-578T): 70.3 µM (inactive)
- GI50 (HCT-116): 39.8 µM (inactive)
- GI50 (NCI-H460): 27.5 µM (inactive)
- GI50 (LOX IMVI): 55.5 µM (inactive)
- GI50 (MCF7): 66.1 µM (inactive)
- GI50 (EKVX): 18 µM (inactive)
- GI50 (UO-31): 21.7 µM (inactive)
- GI50 (UACC-62): 41.7 µM (inactive)
- GI50 (TK-10): > 100 µM (inactive)
- GI50 (CCRF-CEM): 30.3 µM (inactive)
- GI50 (HCT-15): 38.8 µM
- GI50 (NCI-H226): 24.2 µM (inactive)
- GI50 (HT-29): 44.9 µM (inactive)
- GI50 (BT-549): 41.2 µM (inactive)
- GI50 (MDA-N): 46.6 µM (inactive)
- GI50 (OVCAR-5): 61 µM (inactive)
- GI50 (HOP-62): 41.2 µM (inactive)
- GI50 (ACHN): 24.9 µM (inactive)
- GI50 (SK-MEL-28): 34.8 µM (inactive)
- GI50 (KM12): 51.2 µM (inactive)
- GI50 (A498): 2.39 µM (inactive)
- GI50 (SR): 41.4 µM (inactive)
- GI50 (SNB-75): 76.6 µM (inactive)
- GI50 (HCC 2998): 39.9 µM (inactive)
- GI50 (OVCAR-3): 85.9 µM (inactive)
- GI50 (SK-OV-3): > 100 µM (inactive)
- GI50 (NCI-H23): > 100 µM (inactive)
- GI50 (SW-620): 63.1 µM (inactive)
- GI50 (U-251): 22.2 µM (inactive)
- GI50 (Malme-3M): 75.7 µM (inactive)
- GI50 (MDA-MB-231): > 100 µM (inactive)
- GI50 (OVCAR-4): 38.5 µM (inactive)

Compound: CC(=O)Nc1ccc(/C=C/C(=O)c2sc(-c3cccnc3)nc2C)cc1
- GI50 (NCI-H522): > 100 µM (inactive)
- GI50 (IGROV-1): > 100 µM (inactive)
- GI50 (SF-268): > 100 µM (inactive)
- GI50 (M19-MEL): > 100 µM (inactive)
- GI50 (SK-MEL-2): > 100 µM (inactive)
- GI50 (RXF 393): > 100 µM (inactive)
- GI50 (SF-539): > 100 µM (inactive)
- GI50 (CAKI-1): > 100 µM (inactive)
- GI50 (KM-20L2): > 100 µM (inactive)
- GI50 (HL-60): > 100 µM (inactive)
- GI50 (DLD-1): > 100 µM (inactive)
- GI50 (MOLT-4): > 100 µM (inactive)
- GI50 (DMS-114): > 100 µM (inactive)
- GI50 (786-0): > 100 µM (inactive)
- GI50 (K562): > 100 µM (inactive)
- GI50 (OVCAR-8): > 100 µM (inactive)
- GI50 (RPMI-8226): > 100 µM (inactive)
- GI50 (UACC-257): > 100 µM (inactive)
- GI50 (A549): > 100 µM (inactive)
- GI50 (HOP-92): > 100 µM (inactive)
- GI50 (SF-295): > 100 µM (inactive)
- GI50 (COLO 205): > 100 µM (inactive)
- GI50 (SN12C): > 100 µM (inactive)
- GI50 (SK-MEL-5): > 100 µM (inactive)
- GI50 (NCI-H460): > 100 µM (inactive)
- GI50 (LOX IMVI): > 100 µM (inactive)
- GI50 (EKVX): > 100 µM (inactive)
- GI50 (UO-31): > 100 µM (inactive)
- GI50 (UACC-62): > 100 µM (inactive)
- GI50 (TK-10): > 100 µM (inactive)
- GI50 (CCRF-CEM): > 100 µM (inactive)
- GI50 (DMS-273): > 100 µM (inactive)
- GI50 (HOP-18): > 100 µM (inactive)
- GI50 (HCT-15): > 100 µM
- GI50 (NCI-H226): > 100 µM (inactive)
- GI50 (HT-29): > 100 µM (inactive)
- GI50 (OVCAR-5): > 100 µM (inactive)
- GI50 (HOP-62): > 100 µM (inactive)
- GI50 (ACHN): > 100 µM (inactive)
- GI50 (SNB-78): > 100 µM (inactive)
- GI50 (SK-MEL-28): > 100 µM (inactive)
- GI50 (KM12): > 100 µM (inactive)
- GI50 (A498): > 100 µM (inactive)
- GI50 (SNB-75): > 100 µM (inactive)
- GI50 (HCC 2998): > 100 µM (inactive)
- GI50 (OVCAR-3): > 100 µM (inactive)
- GI50 (SK-OV-3): > 100 µM (inactive)
- GI50 (NCI-H23): > 100 µM (inactive)
- GI50 (SW-620): > 100 µM (inactive)
- GI50 (U-251): > 100 µM (inactive)
- GI50 (Malme-3M): > 100 µM (inactive)
